Experimental data from ChEMBL document CHEMBL1909493, “Synthesis and biological evaluation of novel analogues of the pan class I phosphatidylinositol 3-kinase (PI3K) inhibitor 2-(difluoromethyl)-1-[4,6-di(4-morpholinyl)-1,3,5-triazin-2-yl]-1H-benzimidazole (ZSTK474)” (J Med Chem, 2011).
pIC50: −log10 of the molar value. In brackets after ≈: the same amount, converted by molar mass.

How the values were obtained:
cells [1] = conditions: Homo sapiens, NZB5
[2] = target: Phosphatidylinositol 4,5-bisphosphate 3-kinase catalytic subunit beta isoform (Homo sapiens, UniProt P42338); assay: Inhibition of human recombinant PI3K p110beta expressed in Sf21 insect cells using phosphatidylinositol as substrate after 1 hr by phosphoimaging
Phosphatidylinositol 4,5-bisphosphate 3-kinase catalytic subunit beta isoform, sequence (P42338 whole entry, canonical isoform): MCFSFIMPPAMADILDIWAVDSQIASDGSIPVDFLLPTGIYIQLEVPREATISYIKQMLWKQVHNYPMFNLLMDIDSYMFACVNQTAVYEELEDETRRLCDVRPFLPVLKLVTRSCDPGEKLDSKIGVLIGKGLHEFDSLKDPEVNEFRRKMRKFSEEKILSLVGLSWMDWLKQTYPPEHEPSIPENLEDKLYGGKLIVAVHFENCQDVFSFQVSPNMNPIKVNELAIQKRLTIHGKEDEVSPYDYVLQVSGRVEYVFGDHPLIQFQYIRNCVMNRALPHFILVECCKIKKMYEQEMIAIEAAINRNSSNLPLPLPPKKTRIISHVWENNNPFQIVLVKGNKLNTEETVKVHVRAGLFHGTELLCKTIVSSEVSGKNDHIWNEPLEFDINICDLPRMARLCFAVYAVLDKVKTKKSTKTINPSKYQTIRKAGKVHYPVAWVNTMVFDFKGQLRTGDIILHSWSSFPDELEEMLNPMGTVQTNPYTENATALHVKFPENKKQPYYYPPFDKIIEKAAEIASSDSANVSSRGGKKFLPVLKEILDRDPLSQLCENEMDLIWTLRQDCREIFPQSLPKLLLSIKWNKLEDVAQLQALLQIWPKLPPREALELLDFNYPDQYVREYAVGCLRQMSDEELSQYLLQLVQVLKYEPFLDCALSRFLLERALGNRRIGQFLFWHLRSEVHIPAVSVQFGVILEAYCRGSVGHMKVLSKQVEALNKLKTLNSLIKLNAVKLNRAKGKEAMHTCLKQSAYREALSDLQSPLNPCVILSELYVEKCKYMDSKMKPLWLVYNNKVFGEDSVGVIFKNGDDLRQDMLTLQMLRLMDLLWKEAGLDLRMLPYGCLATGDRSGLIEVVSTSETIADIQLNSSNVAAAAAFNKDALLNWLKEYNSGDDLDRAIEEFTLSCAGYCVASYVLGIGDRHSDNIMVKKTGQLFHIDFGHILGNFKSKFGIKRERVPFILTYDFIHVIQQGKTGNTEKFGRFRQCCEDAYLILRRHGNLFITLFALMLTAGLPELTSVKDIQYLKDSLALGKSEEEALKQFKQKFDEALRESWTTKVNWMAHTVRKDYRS

[3] = target: Phosphatidylinositol 4,5-bisphosphate 3-kinase catalytic subunit alpha isoform (Mus musculus, UniProt P42337); assay: Inhibition of mouse recombinant PI3K p110alpha expressed in Sf21 insect cells using phosphatidylinositol as substrate after 1 hr by phosphoimaging
Phosphatidylinositol 4,5-bisphosphate 3-kinase catalytic subunit alpha isoform (Mus musculus, UniProt P42337), sequence (P42337 whole entry, canonical isoform): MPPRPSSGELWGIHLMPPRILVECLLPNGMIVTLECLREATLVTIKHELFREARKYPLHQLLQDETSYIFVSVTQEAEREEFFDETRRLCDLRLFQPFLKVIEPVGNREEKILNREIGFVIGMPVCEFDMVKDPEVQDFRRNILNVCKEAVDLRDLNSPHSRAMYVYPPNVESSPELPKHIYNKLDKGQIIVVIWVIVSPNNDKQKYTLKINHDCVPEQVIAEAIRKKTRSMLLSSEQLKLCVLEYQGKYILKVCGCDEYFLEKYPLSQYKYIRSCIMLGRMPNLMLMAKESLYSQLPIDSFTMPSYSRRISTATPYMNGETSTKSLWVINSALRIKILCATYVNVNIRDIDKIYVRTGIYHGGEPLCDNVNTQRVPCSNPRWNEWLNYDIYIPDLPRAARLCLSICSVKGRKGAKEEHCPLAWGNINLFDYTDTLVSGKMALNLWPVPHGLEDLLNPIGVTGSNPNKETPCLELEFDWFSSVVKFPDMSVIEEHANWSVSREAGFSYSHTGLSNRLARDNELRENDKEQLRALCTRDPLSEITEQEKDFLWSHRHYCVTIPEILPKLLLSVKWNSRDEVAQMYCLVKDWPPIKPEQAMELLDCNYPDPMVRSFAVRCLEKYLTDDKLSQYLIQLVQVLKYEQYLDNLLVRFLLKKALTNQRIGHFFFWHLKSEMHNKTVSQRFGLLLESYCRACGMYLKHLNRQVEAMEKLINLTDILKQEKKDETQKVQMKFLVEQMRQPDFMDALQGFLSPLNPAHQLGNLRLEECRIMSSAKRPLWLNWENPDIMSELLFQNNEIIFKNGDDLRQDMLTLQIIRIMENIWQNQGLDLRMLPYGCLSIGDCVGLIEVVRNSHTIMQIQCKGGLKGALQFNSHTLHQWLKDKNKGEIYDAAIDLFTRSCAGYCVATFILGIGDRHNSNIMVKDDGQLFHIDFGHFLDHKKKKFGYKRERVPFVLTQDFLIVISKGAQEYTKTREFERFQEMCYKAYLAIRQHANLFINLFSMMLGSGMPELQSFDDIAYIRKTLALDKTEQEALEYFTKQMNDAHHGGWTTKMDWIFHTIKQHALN

cells [4] = conditions: Homo sapiens, NZOV9
[5] = Inhibition of bovine recombinant PI3K p110delta expressed in Sf21 insect cells using phosphatidylinositol as substrate after 1 hr by phosphoimaging; set-up: species or system Bos taurus
[6] = Aqueous solubility of the compound in water after 15 mins by HPLC analysis; conditions: aqueous medium
cells [7] = conditions: Homo sapiens, HCT-116
[8] = target: T1, Phosphatidylinositol 4,5-bisphosphate 3-kinase catalytic subunit alpha isoform (Homo sapiens, UniProt P42336); assay: Inhibition of PIK3CA-mediated cell signaling in PTEN-deficient human U87MG cells assessed as inhibition of insulin-induced pAkt/PKB phosphorylation at Thr308 treated for 15 mins before insulin challenge measured after 5 mins by immunoblotting; type: cell-based, U-87MG ATCC
T1 sequence (P42336 whole entry, canonical isoform): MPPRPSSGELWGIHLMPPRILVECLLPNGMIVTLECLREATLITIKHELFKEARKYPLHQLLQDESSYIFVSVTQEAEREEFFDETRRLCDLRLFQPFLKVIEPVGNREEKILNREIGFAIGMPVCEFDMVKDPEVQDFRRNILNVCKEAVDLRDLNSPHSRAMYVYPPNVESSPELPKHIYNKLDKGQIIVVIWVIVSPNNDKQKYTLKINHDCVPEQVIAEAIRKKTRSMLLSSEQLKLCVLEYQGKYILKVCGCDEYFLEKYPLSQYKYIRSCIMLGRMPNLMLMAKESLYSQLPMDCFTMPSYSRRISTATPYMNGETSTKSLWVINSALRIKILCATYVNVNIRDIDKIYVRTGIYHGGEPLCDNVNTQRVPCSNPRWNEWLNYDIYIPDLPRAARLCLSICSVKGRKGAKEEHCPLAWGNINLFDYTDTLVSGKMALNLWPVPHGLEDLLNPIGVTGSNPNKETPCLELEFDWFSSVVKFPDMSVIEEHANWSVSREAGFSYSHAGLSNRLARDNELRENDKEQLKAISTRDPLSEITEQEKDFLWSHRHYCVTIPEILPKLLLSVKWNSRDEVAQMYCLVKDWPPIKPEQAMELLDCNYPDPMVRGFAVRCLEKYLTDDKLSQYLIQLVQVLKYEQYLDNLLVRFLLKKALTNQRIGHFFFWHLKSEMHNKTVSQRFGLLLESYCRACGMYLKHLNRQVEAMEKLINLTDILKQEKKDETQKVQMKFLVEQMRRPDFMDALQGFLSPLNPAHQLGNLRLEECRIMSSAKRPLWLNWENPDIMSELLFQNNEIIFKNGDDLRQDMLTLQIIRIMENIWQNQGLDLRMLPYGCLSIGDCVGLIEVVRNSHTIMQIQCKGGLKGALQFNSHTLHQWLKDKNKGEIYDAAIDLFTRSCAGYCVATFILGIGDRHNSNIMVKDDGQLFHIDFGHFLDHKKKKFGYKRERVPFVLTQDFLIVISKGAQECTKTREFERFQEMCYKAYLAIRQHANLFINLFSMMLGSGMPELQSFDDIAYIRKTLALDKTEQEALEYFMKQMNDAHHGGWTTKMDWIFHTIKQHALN

[9] = target: T1, Phosphatidylinositol 4,5-bisphosphate 3-kinase catalytic subunit alpha isoform; assay: Inhibition of PIK3CA-mediated cell signaling in PTEN-deficient human U87MG cells assessed as inhibition of insulin-induced pAkt/PKB phosphorylation at Ser473 treated for 15 mins before insulin challenge measured after 5 mins by immunoblotting; type: cell-based, U-87MG ATCC
cells [10] = conditions: Homo sapiens, HCT-116; remark: listed apart in the source

Row | SMILES | pIC50 (cells [1]) | pIC50 [2] | pIC50 [3] | pIC50 (cells [4]) | pIC50 [5] | solubility at […] [6] [µg/mL] | pIC50 (cells [7]) | pIC50 [8] | pIC50 [9] | pIC50 (cells [10])
1 | CS(=O)(=O)Oc1cccc2c1nc(C(F)F)n2-c1nc(N2CCOCC2)nc(N2CCOCC2)n1 | 6.77 | 6.24 | 6.53 | 6.89 | 6.80 |  |  |  |  | 
2 | CS(=O)(=O)O.Cn1c(=O)n(-c2ccc(C(C)(C)C#N)cc2)c2c3cc(-c4cnc5ccccc5c4)ccc3ncc21 |  |  |  |  |  | 11.3 |  |  |  | 
3 | NC(=O)c1cccc2c1nc(C(F)F)n2-c1nc(N2CCOCC2)nc(N2CCOCC2)n1 | 6.12 | < 6.00 | < 6.00 |  | 6.00 |  |  |  |  | 
4 | COc1cccc2c1nc(C(F)F)n2-c1nc(N2CCOCC2)nc(N2CCOCC2)n1 | 7.30 | 7.60 | 8.57 | 8.00 | 8.41 | 0.08 (≈ 0.179 µM) | 7.43 | 7.55 | 7.26 | 7.60
5 | CCCCOc1cccc2c1nc(C(F)F)n2-c1nc(N2CCOCC2)nc(N2CCOCC2)n1 | 6.64 | 5.62 |  | 6.68 | 6.81 |  |  |  |  | 
6 | CCCOc1cccc2c1nc(C(F)F)n2-c1nc(N2CCOCC2)nc(N2CCOCC2)n1 | 7.15 | 6.29 | 7.80 | 7.30 | 7.02 |  |  |  |  | 
7 | CSCc1nc2ccccc2n1-c1nc(N2CCOCC2)nc(N2CCOCC2)n1 | 7.08 | 7.41 | 6.77 | 7.07 | 7.39 |  |  |  |  | 
8 | c1ccc2c(c1)ncn2-c1nc(N2CCOCC2)nc(N2CCOCC2)n1 | 5.82 | 5.81 | 6.58 | 6.52 | 6.85 |  |  |  |  | 
9 | CS(=O)(=O)c1nc2ccccc2n1-c1nc(N2CCOCC2)nc(N2CCOCC2)n1 | 5.00 | 6.42 | 6.69 | 5.70 | 7.12 |  |  |  |  | 
10 | COc1cc(OC)c2nc(C(F)F)n(-c3nc(N4CCOCC4)nc(N4CCOCC4)n3)c2c1 | 7.02 | 6.93 | 7.24 | 7.23 | 7.90 |  |  |  |  | 
11 | OCc1cccc2c1nc(C(F)F)n2-c1nc(N2CCOCC2)nc(N2CCOCC2)n1 | 6.52 | 7.17 | 7.57 | 6.77 | 7.92 |  |  |  |  | 
12 | COc1cccc2c1nc(C(F)F)n2-c1nc(N2CCOCC2)cc(N2CCOCC2)n1 | 7.22 | 7.46 | 8.29 | 7.52 | 7.74 |  |  |  |  | 
13 | COc1cccc2c1nc(C(F)F)n2-c1cc(N2CCOCC2)nc(N2CCOCC2)n1 |  | 7.40 | 8.40 |  | 7.85 |  |  |  |  | 
14 | CCOc1cccc2c1nc(C(F)F)n2-c1nc(N2CCOCC2)nc(N2CCOCC2)n1 | 7.15 | 6.98 | 8.57 | 7.40 | 8.26 |  |  |  |  | 
15 | FCc1nc2ccccc2n1-c1nc(N2CCOCC2)nc(N2CCOCC2)n1 | 6.41 | 7.28 | 7.47 | 6.46 | 7.89 |  |  |  |  | 
16 | Oc1cccc2c1nc(C(F)F)n2-c1nc(N2CCOCC2)cc(N2CCOCC2)n1 | 7.00 | 9.09 | 8.82 |  | 9.57 |  |  |  |  | 
17 | OCc1nc2ccccc2n1-c1nc(N2CCOCC2)nc(N2CCOCC2)n1 | 6.12 | < 6.00 | < 6.00 | 5.26 | 5.26 |  |  |  |  | 
18 | FC(F)c1nc2c3c(ccc2n1-c1nc(N2CCOCC2)nc(N2CCOCC2)n1)OCO3 | 6.89 | 7.33 | 6.26 | 7.40 | 7.41 |  |  |  |  | 
19 | FC(F)c1nc2ccccc2n1-c1cc(N2CCOCC2)nc(N2CCOCC2)n1 |  | 6.77 | 7.06 | 6.52 | 7.89 |  |  |  |  | 
20 | COc1cncc2c1nc(C(F)F)n2-c1nc(N2CCOCC2)nc(N2CCOCC2)n1 | 5.25 | 5.99 | 5.89 | 5.59 | 5.80 |  |  |  |  | 

Row | SMILES | pIC50 (cells [1]) | pIC50 [2] | pIC50 [3] | pIC50 (cells [4]) | pIC50 [5] | solubility at […] [6] [µg/mL] | pIC50 (cells [7]) | pIC50 [8] | pIC50 [9] | pIC50 (cells [10])
21 | FC(F)c1nc2ccccc2n1-c1nc(N2CCOCC2)cc(N2CCOCC2)n1 | 6.92 | 7.14 | 7.52 | 6.59 | 8.00 |  |  |  |  | 
22 | CNc1cc(OC)c2nc(C(F)F)n(-c3nc(N4CCOCC4)nc(N4CCOCC4)n3)c2c1 | 6.41 | 9.04 | 8.70 | 7.80 | 9.28 |  |  |  |  | 
23 | COc1cc(N(C)C)cc2c1nc(C(F)F)n2-c1nc(N2CCOCC2)nc(N2CCOCC2)n1 | 6.89 | 7.73 | 8.10 | 6.82 | 8.17 |  |  |  |  | 
24 | COC(=O)c1cccc2c1nc(C(F)F)n2-c1nc(N2CCOCC2)nc(N2CCOCC2)n1 | 5.55 | 6.51 | 8.03 | 6.33 | 7.19 |  |  |  |  | 
25 | CN(C)c1cccc2c1nc(C(F)F)n2-c1nc(N2CCOCC2)nc(N2CCOCC2)n1 | 7.22 | < 6.00 | 5.27 | 5.60 | 6.27 |  |  |  |  | 
26 | CNC(=O)c1cccc2c1nc(C(F)F)n2-c1nc(N2CCOCC2)nc(N2CCOCC2)n1 | 6.32 | < 6.00 | 6.53 | 7.30 | 6.00 |  |  |  |  | 
27 | CC(C)Oc1cccc2c1nc(C(F)F)n2-c1nc(N2CCOCC2)nc(N2CCOCC2)n1 | 7.15 | 5.68 | 6.44 | 6.55 | 6.37 |  |  |  |  | 
28 | Cc1nc2ccccc2n1-c1nc(N2CCOCC2)nc(N2CCOCC2)n1 | 6.55 | 6.54 | 6.84 | 6.22 | 7.46 |  |  |  |  | 
29 | COc1ccc2c(nc(C(F)F)n2-c2nc(N3CCOCC3)nc(N3CCOCC3)n2)c1OC | 7.70 | 6.10 | 6.47 | 7.44 | 6.59 |  |  |  |  | 
30 | COc1c(O)ccc2c1nc(C(F)F)n2-c1nc(N2CCOCC2)nc(N2CCOCC2)n1 |  | 7.03 |  | 7.96 | 8.74 |  |  |  |  | 
31 | CS(=O)(=O)Cc1nc2ccccc2n1-c1nc(N2CCOCC2)nc(N2CCOCC2)n1 | 6.60 | 6.60 | 6.32 | 6.36 | 7.27 |  |  |  |  | 
32 | CSc1nc2ccccc2n1-c1nc(N2CCOCC2)nc(N2CCOCC2)n1 | 6.70 | < 6.00 | 5.54 | 6.70 | 6.57 |  |  |  |  | 
33 | N#Cc1cccc2c1nc(C(F)F)n2-c1nc(N2CCOCC2)nc(N2CCOCC2)n1 | < 4.70 | < 6.00 | 7.21 | < 4.70 | 7.18 |  |  |  |  | 
34 | Nc1cccc2c1nc(C(F)F)n2-c1nc(N2CCOCC2)nc(N2CCOCC2)n1 | 7.30 | 7.39 | 8.32 | 7.10 | 9.07 |  |  |  |  | 
35 | C[S+]([O-])Cc1nc2ccccc2n1-c1nc(N2CCOCC2)nc(N2CCOCC2)n1 (centres undefined) | 6.40 | 6.64 | 6.23 | 6.31 | 7.46 |  |  |  |  | 
36 | COc1cc(N)cc2c1nc(C(F)F)n2-c1nc(N2CCOCC2)nc(N2CCOCC2)n1.CS(=O)(=O)O |  |  |  |  |  | 4.2 |  |  |  | 
37 | CN(C)C(=O)c1cccc2c1nc(C(F)F)n2-c1nc(N2CCOCC2)nc(N2CCOCC2)n1 | 6.14 | < 6.00 | < 6.00 | 6.62 | < 6.00 |  |  |  |  | 
38 | FC(F)(F)c1nc2ccccc2n1-c1nc(N2CCOCC2)nc(N2CCOCC2)n1 | 6.05 | 6.34 | 6.69 | 6.15 | 7.15 |  |  |  |  | 
39 | CNc1cccc2c1nc(C(F)F)n2-c1nc(N2CCOCC2)nc(N2CCOCC2)n1 | 6.96 | 6.32 | 6.68 | 6.59 | 7.17 |  |  |  |  | 
